# Reference: PubChem BioAssay (NCI)
#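 How tested: cells in 96-well plates exposed to compound for 48 hours at five concentrations. The concentration for 50% growth inhibition is given as GI50. TGI denotes the concentration required for complete inhibition of growth.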
# Legend:
# Experiment in all cases: NCI tumour cell line growth inhibition, 48 h
# 786-0 renal = tested on: 786-0 renal
# A498 renal = tested on: A498 renal
# A549 NSCLC = tested on: A549 NSCLC
# ACHN renal = tested on: ACHN renal
# BT-549 breast = tested on: BT-549 breast
# CAKI-1 renal = tested on: CAKI-1 renal
# CCRF-CEM leukemia = tested on: CCRF-CEM leukemia
# COLO 205 colon = tested on: COLO 205 colon
# DU-145 prostate = tested on: DU-145 prostate
# EKVX NSCLC = tested on: EKVX NSCLC
# HCC-2998 colon = tested on: HCC-2998 colon
# HCT-116 colon = tested on: HCT-116 colon
# HCT-15 colon = tested on: HCT-15 colon
# HL-60(TB) leukemia = tested on: HL-60(TB) leukemia
# HOP-62 NSCLC = tested on: HOP-62 NSCLC
# HOP-92 NSCLC = tested on: HOP-92 NSCLC
# HS 578T breast = tested on: HS 578T breast
# HT29 colon = tested on: HT29 colon
# IGROV1 ovarian = tested on: IGROV1 ovarian
# K-562 leukemia = tested on: K-562 leukemia
# KM12 colon = tested on: KM12 colon
# LOX IMVI melanoma = tested on: LOX IMVI melanoma
# M14 melanoma = tested on: M14 melanoma
# MALME-3M melanoma = tested on: MALME-3M melanoma
# MCF7 breast = tested on: MCF7 breast
# MDA-MB-435 = tested on: MDA-MB-435
# MDA-MB-468 breast = tested on: MDA-MB-468 breast
# MOLT-4 leukemia = tested on: MOLT-4 leukemia
# NCI-H226 lung = tested on: NCI-H226 lung
# NCI-H23 lung = tested on: NCI-H23 lung
# NCI-H460 lung = tested on: NCI-H460 lung
# NCI-H522 lung = tested on: NCI-H522 lung
# NCI/ADR-RES ovarian = tested on: NCI/ADR-RES ovarian
# OVCAR-3 ovarian = tested on: OVCAR-3 ovarian
# OVCAR-4 ovarian = tested on: OVCAR-4 ovarian
# OVCAR-5 ovarian = tested on: OVCAR-5 ovarian
# OVCAR-8 ovarian = tested on: OVCAR-8 ovarian
# PC-3 prostate = tested on: PC-3 prostate
# RPMI-8226 leukemia = tested on: RPMI-8226 leukemia
# RXF 393 renal = tested on: RXF 393 renal
# SF-268 CNS = tested on: SF-268 CNS
# SF-295 CNS = tested on: SF-295 CNS
# SF-539 CNS = tested on: SF-539 CNS
# SK-MEL-28 melanoma = tested on: SK-MEL-28 melanoma
# SK-MEL-5 melanoma = tested on: SK-MEL-5 melanoma
# SK-OV-3 ovarian = tested on: SK-OV-3 ovarian
# SN12C renal = tested on: SN12C renal
# SNB-19 CNS = tested on: SNB-19 CNS
# SR leukemia = tested on: SR leukemia
# SW-620 colon = tested on: SW-620 colon
# T-47D breast = tested on: T-47D breast
# TK-10 renal = tested on: TK-10 renal
# U251 CNS = tested on: U251 CNS
# UACC-257 melanoma = tested on: UACC-257 melanoma
# UACC-62 melanoma = tested on: UACC-62 melanoma
smiles,measurement,setting,value
c1n[nH]cc1-c1nc2ccc3[nH]ncc3c2c2c1CC1(CC2)COC1,GI50,786-0 renal,13.4 µM
same,TGI,786-0 renal,32.7 µM
same,GI50,A498 renal,15 µM
same,TGI,A498 renal,30.9 µM
same,GI50,A549 NSCLC,27.8 µM
same,TGI,A549 NSCLC,> 100 µM
same,GI50,ACHN renal,16.8 µM
same,TGI,ACHN renal,> 100 µM
same,GI50,BT-549 breast,4.09 µM
same,TGI,BT-549 breast,16.6 µM
same,GI50,CAKI-1 renal,19.2 µM
same,TGI,CAKI-1 renal,86.5 µM
same,GI50,CCRF-CEM leukemia,29.9 µM
same,TGI,CCRF-CEM leukemia,> 100 µM
same,GI50,COLO 205 colon,6.13 µM
same,TGI,COLO 205 colon,21.2 µM
same,GI50,DU-145 prostate,26.2 µM
same,TGI,DU-145 prostate,95.5 µM
same,GI50,EKVX NSCLC,22.4 µM
same,TGI,EKVX NSCLC,83.6 µM
same,GI50,HCC-2998 colon,15.5 µM
same,TGI,HCC-2998 colon,40.6 µM
same,GI50,HCT-116 colon,6.02 µM
same,TGI,HCT-116 colon,37.7 µM
same,GI50,HCT-15 colon,23.2 µM
same,TGI,HCT-15 colon,> 100 µM
same,GI50,HL-60(TB) leukemia,13.6 µM
same,TGI,HL-60(TB) leukemia,39.3 µM
same,GI50,HOP-62 NSCLC,18.2 µM
same,TGI,HOP-62 NSCLC,47.3 µM
same,GI50,HOP-92 NSCLC,23.1 µM
same,TGI,HOP-92 NSCLC,63.1 µM
same,GI50,HS 578T breast,8.53 µM
same,TGI,HS 578T breast,39.3 µM
same,GI50,HT29 colon,26.3 µM
same,TGI,HT29 colon,> 100 µM
same,GI50,IGROV1 ovarian,19.3 µM
same,TGI,IGROV1 ovarian,57.3 µM
same,GI50,K-562 leukemia,13.7 µM
same,TGI,K-562 leukemia,> 100 µM
same,GI50,KM12 colon,22.3 µM
same,TGI,KM12 colon,51.8 µM
same,GI50,LOX IMVI melanoma,11.3 µM
same,TGI,LOX IMVI melanoma,24.6 µM
same,GI50,M14 melanoma,12.9 µM
same,TGI,M14 melanoma,28 µM
same,GI50,MALME-3M melanoma,15.7 µM
same,TGI,MALME-3M melanoma,30.1 µM
same,GI50,MCF7 breast,20.4 µM
same,TGI,MCF7 breast,69.5 µM
same,GI50,MDA-MB-435,14.4 µM
same,TGI,MDA-MB-435,32.4 µM
same,GI50,MDA-MB-468 breast,3.53 µM
same,TGI,MDA-MB-468 breast,13 µM
same,GI50,MOLT-4 leukemia,15.5 µM
same,TGI,MOLT-4 leukemia,48.2 µM
same,GI50,NCI-H226 lung,16 µM
same,TGI,NCI-H226 lung,37.1 µM
same,GI50,NCI-H23 lung,15.1 µM
same,TGI,NCI-H23 lung,32.7 µM
same,GI50,NCI-H460 lung,17.1 µM
same,TGI,NCI-H460 lung,35.9 µM
same,GI50,NCI-H522 lung,3.43 µM
same,TGI,NCI-H522 lung,17.1 µM
same,GI50,NCI/ADR-RES ovarian,> 100 µM
same,TGI,NCI/ADR-RES ovarian,> 100 µM
same,GI50,OVCAR-3 ovarian,13.7 µM
same,TGI,OVCAR-3 ovarian,59.2 µM
same,GI50,OVCAR-4 ovarian,25 µM
same,TGI,OVCAR-4 ovarian,70.4 µM
same,GI50,OVCAR-5 ovarian,25.6 µM
same,TGI,OVCAR-5 ovarian,77.7 µM
same,GI50,OVCAR-8 ovarian,16.3 µM
same,TGI,OVCAR-8 ovarian,35.5 µM
same,GI50,PC-3 prostate,26.5 µM
same,TGI,PC-3 prostate,> 100 µM
same,GI50,RPMI-8226 leukemia,21.3 µM
same,TGI,RPMI-8226 leukemia,68 µM
same,GI50,RXF 393 renal,4.52 µM
same,TGI,RXF 393 renal,17.6 µM
same,GI50,SF-268 CNS,16.2 µM
same,TGI,SF-268 CNS,40.2 µM
same,GI50,SF-295 CNS,23.4 µM
same,TGI,SF-295 CNS,58.4 µM
same,GI50,SF-539 CNS,12.2 µM
same,TGI,SF-539 CNS,25.5 µM
same,GI50,SK-MEL-28 melanoma,12.9 µM
same,TGI,SK-MEL-28 melanoma,27.7 µM
same,GI50,SK-MEL-5 melanoma,16.3 µM
same,TGI,SK-MEL-5 melanoma,30.1 µM
same,GI50,SK-OV-3 ovarian,5.9 µM
same,TGI,SK-OV-3 ovarian,34.3 µM
same,GI50,SN12C renal,13.9 µM
same,TGI,SN12C renal,38 µM
same,GI50,SNB-19 CNS,17.3 µM
same,TGI,SNB-19 CNS,68.1 µM
same,GI50,SR leukemia,3.36 µM
same,TGI,SR leukemia,16.9 µM
same,GI50,SW-620 colon,4.98 µM
same,TGI,SW-620 colon,52.6 µM
same,GI50,T-47D breast,12.7 µM
same,TGI,T-47D breast,57.3 µM
same,GI50,TK-10 renal,15 µM
same,TGI,TK-10 renal,67.6 µM
same,GI50,U251 CNS,17.7 µM
same,TGI,U251 CNS,> 100 µM
same,GI50,UACC-257 melanoma,17 µM
same,TGI,UACC-257 melanoma,39 µM
same,GI50,UACC-62 melanoma,5.76 µM
same,TGI,UACC-62 melanoma,18.7 µM
CC(=O)Nc1ccc(-n2cnc3cc(-c4ccc(O)cc4)ccc32)cc1F,GI50,786-0 renal,6.8 µM
same,TGI,786-0 renal,> 100 µM
same,GI50,A498 renal,> 100 µM
same,TGI,A498 renal,> 100 µM
same,GI50,A549 NSCLC,4.77 µM
same,TGI,A549 NSCLC,> 100 µM
same,GI50,ACHN renal,6.33 µM
same,TGI,ACHN renal,> 100 µM
same,GI50,BT-549 breast,27 µM
same,TGI,BT-549 breast,> 100 µM
same,GI50,CAKI-1 renal,> 100 µM
same,TGI,CAKI-1 renal,> 100 µM
same,GI50,CCRF-CEM leukemia,3.01 µM
same,TGI,CCRF-CEM leukemia,> 100 µM
same,GI50,COLO 205 colon,3.47 µM
same,TGI,COLO 205 colon,> 100 µM
same,GI50,DU-145 prostate,4.33 µM
same,TGI,DU-145 prostate,> 100 µM
same,GI50,EKVX NSCLC,6.04 µM
same,TGI,EKVX NSCLC,> 100 µM
same,GI50,HCC-2998 colon,5.6 µM
same,TGI,HCC-2998 colon,> 100 µM
same,GI50,HCT-116 colon,4.21 µM
same,TGI,HCT-116 colon,> 100 µM
same,GI50,HCT-15 colon,0.831 µM
same,TGI,HCT-15 colon,> 100 µM
same,GI50,HL-60(TB) leukemia,1.23 µM
same,TGI,HL-60(TB) leukemia,3.85 µM
same,GI50,HOP-62 NSCLC,4.53 µM
same,TGI,HOP-62 NSCLC,> 100 µM
same,GI50,HOP-92 NSCLC,23.2 µM
same,TGI,HOP-92 NSCLC,> 100 µM
same,GI50,HS 578T breast,2.61 µM
same,TGI,HS 578T breast,> 100 µM
same,GI50,HT29 colon,3.86 µM
same,TGI,HT29 colon,> 100 µM
same,GI50,IGROV1 ovarian,6.21 µM
same,TGI,IGROV1 ovarian,> 100 µM
same,GI50,K-562 leukemia,0.496 µM
same,TGI,K-562 leukemia,> 100 µM
same,GI50,KM12 colon,3.22 µM
same,TGI,KM12 colon,> 100 µM
same,GI50,LOX IMVI melanoma,6.43 µM
same,TGI,LOX IMVI melanoma,> 100 µM
same,GI50,M14 melanoma,3.39 µM
same,TGI,M14 melanoma,> 100 µM
same,GI50,MALME-3M melanoma,3.35 µM
same,TGI,MALME-3M melanoma,> 100 µM
same,GI50,MCF7 breast,2.45 µM
same,TGI,MCF7 breast,> 100 µM
same,GI50,MDA-MB-468 breast,1.25 µM
same,TGI,MDA-MB-468 breast,4.68 µM
same,GI50,MOLT-4 leukemia,2.67 µM
same,TGI,MOLT-4 leukemia,> 100 µM
same,GI50,NCI-H226 lung,83.2 µM
same,TGI,NCI-H226 lung,> 100 µM
same,GI50,NCI-H23 lung,4.77 µM
same,TGI,NCI-H23 lung,> 100 µM
same,GI50,NCI-H460 lung,3.38 µM
same,TGI,NCI-H460 lung,> 100 µM
same,GI50,NCI-H522 lung,1.63 µM
same,TGI,NCI-H522 lung,4.14 µM
same,GI50,NCI/ADR-RES ovarian,2.78 µM
same,TGI,NCI/ADR-RES ovarian,> 100 µM
same,GI50,OVCAR-3 ovarian,3.06 µM
same,TGI,OVCAR-3 ovarian,> 100 µM
same,GI50,OVCAR-4 ovarian,> 100 µM
same,TGI,OVCAR-4 ovarian,> 100 µM
same,GI50,OVCAR-5 ovarian,6.22 µM
same,TGI,OVCAR-5 ovarian,> 100 µM
same,GI50,OVCAR-8 ovarian,3.48 µM
same,TGI,OVCAR-8 ovarian,> 100 µM
same,GI50,PC-3 prostate,3.66 µM
same,TGI,PC-3 prostate,> 100 µM
same,GI50,RPMI-8226 leukemia,3.32 µM
same,TGI,RPMI-8226 leukemia,16.4 µM
same,GI50,RXF 393 renal,1.94 µM
same,TGI,RXF 393 renal,6.14 µM
same,GI50,SF-268 CNS,9.66 µM
same,TGI,SF-268 CNS,> 100 µM
same,GI50,SF-295 CNS,3.34 µM
same,TGI,SF-295 CNS,> 100 µM
same,GI50,SK-MEL-28 melanoma,29.7 µM
same,TGI,SK-MEL-28 melanoma,> 100 µM
same,GI50,SK-MEL-5 melanoma,4.09 µM
same,TGI,SK-MEL-5 melanoma,> 100 µM
same,GI50,SK-OV-3 ovarian,5.05 µM
same,TGI,SK-OV-3 ovarian,> 100 µM
same,GI50,SN12C renal,5.8 µM
same,TGI,SN12C renal,> 100 µM
same,GI50,SNB-19 CNS,4.73 µM
same,TGI,SNB-19 CNS,> 100 µM
same,GI50,SR leukemia,0.377 µM
same,TGI,SR leukemia,27 µM
same,GI50,SW-620 colon,3.01 µM
same,TGI,SW-620 colon,> 100 µM
same,GI50,T-47D breast,4.02 µM
same,TGI,T-47D breast,> 100 µM
same,GI50,TK-10 renal,49.5 µM
same,TGI,TK-10 renal,> 100 µM
same,GI50,U251 CNS,3.19 µM
same,TGI,U251 CNS,> 100 µM
same,GI50,UACC-257 melanoma,21.5 µM
same,TGI,UACC-257 melanoma,> 100 µM
same,GI50,UACC-62 melanoma,2.55 µM
same,TGI,UACC-62 melanoma,> 100 µM
